Data on one compound can be found in US9623025B2 (priority 2009, dated 2017).

This assay deals with hCA IX (Homo sapiens, UniProt Q16790). Kind of assay: biochemical.

With `Cc1cn(-c2cc(NC(=O)c3ccc(C)c(Nc4nccc(-c5cccnc5)n4)c3)cc(C(F)(F)F)c2)cn1` [Nilotinib, 4-methyl-3-[[4-(3-pyridinyl)-2-pyrimidinyl]amino]-N-[5-(4-methyl-1H-imidazol-1-yl)-3-(trifluoromethyl)phenyl] benzamide], the inhibition constant (Ki) was 41.9 to 75.7 nM.
